# Measurements taken from patent US20250145633A1, “SUBSTITUTED FURANOPYRIMIDINE COMPOUNDS AS PDE1 INHIBITORS” (Dart NeuroScience, LLC, priority 2017, published 2025).
# Target: human PDE1B enzyme (Homo sapiens (Human), UniProt Q01064)
# Assay: IMAP TR-FRET PDE1B enzymatic assay
# Type: biochemical
# Conditions: negative log of half-maximal molar inhibitory concentration; 200 nM FAM-cAMP; values given as bins; read-out: PDE1b (pIC50) (converted)
# Method in brief: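 Full-length GST-tagged human PDE1B (250 pg/well) in IMAP BSA buffer with 10 U/ml calmodulin and 2.5 mM CaCl2; compound pre-incubated 5 min at room temperature, then 200 nM (final) FAM-cAMP for 30 min. IMAP binding reagent/Tb added, 1 h; TR-FRET 520/490 ratio read. IC50 from sigmoidal dose-response fit.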
row,SMILES,IC50 [nM]
1,"CCN(Cc1cc(OC)ncn1)C(=O)c1c(C)oc2ncnc(NC3(C)CC3)c12 [Example 813, N-Ethyl-N-[(6-methoxypyrimidin-4-yl)methyl]-6-methyl-4-[(1-methylcyclopropyl)amino]furo[2,3-d]pyrimidine-5-carboxamide]",100 to 1000
2,"Cc1nc(C)n2c1CN(C(=O)c1c(C)oc3ncnc(NC4(C)CC4)c13)CC2 [Example 814, 5-{1,3-Dimethyl-5H,6H,7H,8H-imidazo[1,5-a]pyrazine-7-carbonyl}-6-methyl-N-(1-methylcyclopropyl)furo[2,3-d]pyrimidin-4-amine]",100 to 1000
